Test results: ChEMBL document CHEMBL2380212, “Synthesis, single crystal and antitumor activities of benzimidazole-quinazoline hybrids” (Bioorg Med Chem Lett, 2013)

Experiments:
PC-3 = experiment: Cytotoxicity against human PC3 cells at 10 uM after 48 hrs by SRB assay; assay type: functional; conditions: PC-3, 48 h, read-out: GI
HT-29 = experiment: Cytotoxicity against human HT-29 cells at 10 uM after 48 hrs by SRB assay; assay type: functional; conditions: HT-29, 48 h, read-out: GI
SNB-19 = experiment: Cytotoxicity against human SNB19 cells at 10 uM after 48 hrs by SRB assay; assay type: functional; conditions: SNB-19, 48 h, read-out: GI
NCI-H322M = experiment: Cytotoxicity against human NCI-H322M cells at 10 uM after 48 hrs by SRB assay; assay type: functional; conditions: read-out: GI
NCI-H226 = experiment: Cytotoxicity against human NCI-H226 cells at 10 uM after 48 hrs by SRB assay; assay type: functional; conditions: NCI-H226, 48 h, read-out: GI
SR = experiment: Cytotoxicity against human SR cells at 10 uM after 48 hrs by SRB assay; assay type: functional; conditions: read-out: GI
OVCAR-3 = experiment: Cytotoxicity against human OVCAR3 cells at 10 uM after 48 hrs by SRB assay; assay type: functional; conditions: OVCAR-3, 48 h, read-out: GI
HCT-15 = experiment: Cytotoxicity against human HCT15 cells at 10 uM after 48 hrs by SRB assay; assay type: functional; conditions: HCT-15, 48 h, read-out: GI
HL-60(TB) = experiment: Cytotoxicity against human HL-60(TB) cells at 10 uM after 48 hrs by SRB assay; assay type: functional; conditions: HL-60, 48 h, read-out: GI
COLO 205 = experiment: Cytotoxicity against human COLO205 cells at 10 uM after 48 hrs by SRB assay; assay type: functional; conditions: COLO 205, 48 h, read-out: GI
RXF 393 = experiment: Cytotoxicity against human RXF393 cells at 10 uM after 48 hrs by SRB assay; assay type: functional; conditions: RXF 393, 48 h, read-out: GI
NCI-H23 = experiment: Cytotoxicity against human NCI-H23 cells at 10 uM after 48 hrs by SRB assay; assay type: functional; conditions: NCI-H23, 48 h, read-out: GI
RPMI-8226 = experiment: Cytotoxicity against human RPMI8226 cells at 10 uM after 48 hrs by SRB assay; assay type: functional; conditions: RPMI-8226, 48 h, read-out: GI
NCI-H460 = experiment: Cytotoxicity against human NCI-H460 cells at 10 uM after 48 hrs by SRB assay; assay type: functional; conditions: NCI-H460, 48 h, read-out: GI
MDA-MB-468 = experiment: Cytotoxicity against human MDA-MB-468 cells at 10 uM after 48 hrs by SRB assay; assay type: functional; conditions: MDA-MB-468, 48 h, read-out: GI
UO-31 = experiment: Cytotoxicity against human UO31 cells at 10 uM after 48 hrs by SRB assay; assay type: functional; conditions: UO-31, 48 h, read-out: GI
HOP-92 = experiment: Cytotoxicity against human HOP92 cells at 10 uM after 48 hrs by SRB assay; assay type: functional; conditions: HOP-92, 48 h, read-out: GI
SK-MEL-2 = experiment: Cytotoxicity against human SK-MEL-2 cells at 10 uM after 48 hrs by SRB assay; assay type: functional; conditions: SK-MEL-2, 48 h, read-out: GI
LOX IMVI = experiment: Cytotoxicity against human LOXIMVI cells at 10 uM after 48 hrs by SRB assay; assay type: functional; conditions: read-out: GI
786-0 = experiment: Cytotoxicity against human 786-0 cells at 10 uM after 48 hrs by SRB assay; assay type: functional; conditions: 786-0, 48 h, read-out: GI
SN12C = experiment: Cytotoxicity against human SN12C cells at 10 uM after 48 hrs by SRB assay; assay type: functional; conditions: read-out: GI
UACC-62 = experiment: Cytotoxicity against human UACC62 cells at 10 uM after 48 hrs by SRB assay; assay type: functional; conditions: UACC-62, 48 h, read-out: GI
OVCAR-8 = experiment: Cytotoxicity against human OVCAR8 cells at 10 uM after 48 hrs by SRB assay; assay type: functional; conditions: OVCAR-8, 48 h, read-out: GI
HCT-116 = experiment: Cytotoxicity against human HCT116 cells at 10 uM after 48 hrs by SRB assay; assay type: functional; conditions: HCT-116, 48 h, read-out: GI
NCI-H522 = experiment: Cytotoxicity against human NCI-H522 cells at 10 uM after 48 hrs by SRB assay; assay type: functional; conditions: NCI-H522, 48 h, read-out: GI
U-251 = experiment: Cytotoxicity against human U251 cells at 10 uM after 48 hrs by SRB assay; assay type: functional; conditions: U-251, 48 h, read-out: GI
A549 = experiment: Cytotoxicity against human A549 cells at 10 uM after 48 hrs by SRB assay; assay type: functional; conditions: A549, 48 h, read-out: GI
[1] = n-Octanol-phosphate buffer partition coefficient, log P of the compound at pH 7.4 by shake flask method; assay type: physicochemical
M14 = experiment: Cytotoxicity against human M14 cells at 10 uM after 48 hrs by SRB assay; assay type: functional; conditions: M14, 48 h, read-out: GI
OVCAR-5 = experiment: Cytotoxicity against human OVCAR5 cells at 10 uM after 48 hrs by SRB assay; assay type: functional; conditions: OVCAR-5, 48 h, read-out: GI
SF-539 = experiment: Cytotoxicity against human SF539 cells at 10 uM after 48 hrs by SRB assay; assay type: functional; conditions: SF-539, 48 h, read-out: GI
MDA-MB-231 = experiment: Cytotoxicity against human MDA-MB-231 cells at 10 uM after 48 hrs by SRB assay; assay type: functional; conditions: MDA-MB-231, 48 h, read-out: GI
SF-268 = experiment: Cytotoxicity against human SF268 cells at 10 uM after 48 hrs by SRB assay; assay type: functional; conditions: SF-268, 48 h, read-out: GI
ACHN = experiment: Cytotoxicity against human ACHN cells at 10 uM after 48 hrs by SRB assay; assay type: functional; conditions: read-out: GI
OVCAR-4 = experiment: Cytotoxicity against human OVCAR4 cells at 10 uM after 48 hrs by SRB assay; assay type: functional; conditions: OVCAR-4, 48 h, read-out: GI
T47D = experiment: Cytotoxicity against human T47D cells at 10 uM after 48 hrs by SRB assay; assay type: functional; conditions: read-out: GI
K562 = experiment: Cytotoxicity against human K562 cells at 10 uM after 48 hrs by SRB assay; assay type: functional; conditions: K562, 48 h, read-out: GI
IGROV-1 = experiment: Cytotoxicity against human IGROV1 cells at 10 uM after 48 hrs by SRB assay; assay type: functional; conditions: IGROV-1, 48 h, read-out: GI
MOLT-4 = experiment: Cytotoxicity against human MOLT4 cells at 10 uM after 48 hrs by SRB assay; assay type: functional; conditions: MOLT-4, 48 h, read-out: GI
DU-145 = experiment: Cytotoxicity against human DU145 cells at 10 uM after 48 hrs by SRB assay; assay type: functional; conditions: DU-145, 48 h, read-out: GI
SK-OV-3 = experiment: Cytotoxicity against human SKOV3 cells at 10 uM after 48 hrs by SRB assay; assay type: functional; conditions: SK-OV-3, 48 h, read-out: GI
KM12 = experiment: Cytotoxicity against human KM12 cells at 10 uM after 48 hrs by SRB assay; assay type: functional; conditions: KM12, 48 h, read-out: GI

**Q.** With `C=CCn1c(C)nc2cc(Nc3nc(N4CCOCC4)nc4ccccc34)ccc21` as the molecule, how does the inhibition of growth at 10 µM (PC-3) read?
**A.** 11.9%

**Q.** And the inhibition of growth at 10 µM (HT-29)?
**A.** < 10%

**Q.** And the inhibition of growth at 10 µM (SNB-19)?
**A.** < 10%

**Q.** What about the inhibition of growth at 10 µM (NCI-H322M) of the same molecule?
**A.** < 10%

**Q.** And the inhibition of growth at 10 µM (NCI-H226)?
**A.** < 10%

**Q.** And the inhibition of growth at 10 µM (SR)?
**A.** < 10%

**Q.** And the inhibition of growth at 10 µM (OVCAR-3)?
**A.** < 10%

**Q.** What about the inhibition of growth at 10 µM (HCT-15) of the same molecule?
**A.** < 10%

**Q.** What about the inhibition of growth at 10 µM (HL-60(TB)) of the same molecule?
**A.** 13.5%

**Q.** What about the inhibition of growth at 10 µM (COLO 205) of the same molecule?
**A.** < 10%

**Q.** What about the inhibition of growth at 10 µM (RXF 393) of the same molecule?
**A.** < 10%

**Q.** What about the inhibition of growth at 10 µM (NCI-H23) of the same molecule?
**A.** < 10%

**Q.** What about the inhibition of growth at 10 µM (RPMI-8226) of the same molecule?
**A.** 13.4%

**Q.** And the inhibition of growth at 10 µM (NCI-H460)?
**A.** < 10%

**Q.** What about the inhibition of growth at 10 µM (MDA-MB-468) of the same molecule?
**A.** < 10%

**Q.** What about the inhibition of growth at 10 µM (UO-31) of the same molecule?
**A.** < 10%

**Q.** What about the inhibition of growth at 10 µM (HOP-92) of the same molecule?
**A.** < 10%

**Q.** What about the inhibition of growth at 10 µM (SK-MEL-2) of the same molecule?
**A.** < 10%

**Q.** What about the inhibition of growth at 10 µM (LOX IMVI) of the same molecule?
**A.** < 10%

**Q.** What about the inhibition of growth at 10 µM (786-0) of the same molecule?
**A.** < 10%

**Q.** And the inhibition of growth at 10 µM (SN12C)?
**A.** < 10%

**Q.** And the inhibition of growth at 10 µM (UACC-62)?
**A.** < 10%

**Q.** And the inhibition of growth at 10 µM (OVCAR-8)?
**A.** < 10%

**Q.** What about the inhibition of growth at 10 µM (HCT-116) of the same molecule?
**A.** < 10%

**Q.** What about the inhibition of growth at 10 µM (NCI-H522) of the same molecule?
**A.** < 10%

**Q.** What about the inhibition of growth at 10 µM (U-251) of the same molecule?
**A.** < 10%

**Q.** What about the inhibition of growth at 10 µM (A549) of the same molecule?
**A.** < 10%

**Q.** What about the logD [1] of the same molecule?
**A.** 2.49

**Q.** And the inhibition of growth at 10 µM (M14)?
**A.** < 10%

**Q.** What about the inhibition of growth at 10 µM (OVCAR-5) of the same molecule?
**A.** < 10%

**Q.** What about the inhibition of growth at 10 µM (SF-539) of the same molecule?
**A.** < 10%

**Q.** And the inhibition of growth at 10 µM (MDA-MB-231)?
**A.** < 10%

**Q.** What about the inhibition of growth at 10 µM (SF-268) of the same molecule?
**A.** < 10%

**Q.** And the inhibition of growth at 10 µM (ACHN)?
**A.** < 10%

**Q.** And the inhibition of growth at 10 µM (OVCAR-4)?
**A.** < 10%

**Q.** What about the inhibition of growth at 10 µM (T47D) of the same molecule?
**A.** < 10%

**Q.** And the inhibition of growth at 10 µM (K562)?
**A.** < 10%

**Q.** And the inhibition of growth at 10 µM (IGROV-1)?
**A.** < 10%

**Q.** What about the inhibition of growth at 10 µM (MOLT-4) of the same molecule?
**A.** < 10%

**Q.** And the inhibition of growth at 10 µM (DU-145)?
**A.** < 10%

**Q.** And the inhibition of growth at 10 µM (SK-OV-3)?
**A.** < 10%

**Q.** What about the inhibition of growth at 10 µM (KM12) of the same molecule?
**A.** < 10%
